Measurements: patent US9163021B2, “Pyrrolo[3,2-c]pyridine tropomyosin-related kinase inhibitors” (Pfizer Limited, priority 2012, dated 2015)

Biological target: TRKA (Homo sapiens (Human), UniProt P04629)
Assay: Isolated TRK enzyme assay (HTRF KinEASE-TK), PV3144 TrkA enzyme assay
Format: biochemical
Settings: arithmetic mean where more than one reading
Outline: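 Kinase (recombinant His-TrkA cytoplasmic domain, ATP-preactivated 20 min) met compound 20 min, then biotinylated TK substrate (1 µM final) with Mg2+/DTT buffer; HTRF detection.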

TRKA, sequence (P04629 441-796): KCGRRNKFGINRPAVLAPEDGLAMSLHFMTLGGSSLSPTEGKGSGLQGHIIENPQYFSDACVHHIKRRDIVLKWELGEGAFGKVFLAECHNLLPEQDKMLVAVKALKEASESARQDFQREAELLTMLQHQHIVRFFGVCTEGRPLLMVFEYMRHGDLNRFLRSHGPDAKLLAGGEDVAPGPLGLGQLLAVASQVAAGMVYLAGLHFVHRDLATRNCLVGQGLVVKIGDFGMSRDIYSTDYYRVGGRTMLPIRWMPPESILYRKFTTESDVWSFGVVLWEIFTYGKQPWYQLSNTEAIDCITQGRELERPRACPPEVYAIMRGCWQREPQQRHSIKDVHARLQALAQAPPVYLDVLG

SMILES	IC50 [nM]
CC(C)(O)Cc1cccc(CC(=O)Nc2cc(C(=O)c3cn(CCO)c4ccncc34)ccn2)c1 [Example 151, N-(4-{[1-(2-hydroxyethyl)-1H-pyrrolo[3,2-c]pyridin-3-yl]carbonyl}pyridin-2-yl)-2-[3-(2-hydroxy-2-methylpropyl)phenyl]acetamide]	408
Cc1cc(C)n(CC(=O)Nc2cc(C(=O)c3cn(CCO)c4ccncc34)ccn2)n1 [Example 152, 2-(3,5-dimethyl-1H-pyrazol-1-yl)-N-(4-{[1-(2-hydroxyethyl)-1H-pyrrolo[3,2-c]pyridin-3-yl]carbonyl}pyridin-2-yl)acetamide]	2150
Cc1cc(C(F)(F)F)nn1CC(=O)Nc1cc(C(=O)c2cn(CCO)c3ccncc23)ccn1 [Example 153, N-(4-{[1-(2-hydroxyethyl)-1H-pyrrolo[3,2-c]pyridin-3-yl]carbonyl}pyridin-2-yl)-2-[5-methyl-3-(trifluoromethyl)-1H-pyrazol-1-yl]acetamide]	83.9
Cn1nc(C(C)(C)C)nc1CC(=O)Nc1cc(C(=O)c2cn(CCO)c3ccncc23)ccn1 [Example 154, 2-(3-tert-butyl-1-methyl-1H-1,2,4-triazol-5-yl)-N-(4-{[1-(2-hydroxyethyl)-1H-pyrrolo[3,2-c]pyridin-3-yl]carbonyl}pyridin-2-yl)acetamide]	1100
Cc1ccnn1CC(=O)Nc1cc(C(=O)c2cn(CCO)c3ccncc23)ccn1 [Example 155, N-(4-{[1-(2-hydroxyethyl)-1H-pyrrolo[3,2-c]pyridin-3-yl]carbonyl}pyridin-2-yl)-2-(5-methyl-1H-pyrazol-1-yl)acetamide]	2390
O=C(Cn1cc(C(F)(F)F)nn1)Nc1cc(C(=O)c2cn(CCO)c3ccncc23)ccn1 [Example 156, N-(4-{[1-(2-hydroxyethyl)-1H-pyrrolo[3,2-c]pyridin-3-yl]carbonyl}pyridin-2-yl)-2-[4-(trifluoromethyl)-1H-1,2,3-triazol-1-yl]acetamide]	342
CC(C)n1ncc(CC(=O)Nc2cc(C(=O)c3cn(CCO)c4ccncc34)ccn2)c1C(F)(F)F [Example 157, N-(4-{[1-(2-hydroxyethyl)-1H-pyrrolo[3,2-c]pyridin-3-yl]carbonyl}pyridin-2-yl)-2-[1-(propan-2-yl)-5-(trifluoromethyl)-1H-pyrazol-4-yl]acetamide]	420
O=C(Cn1nccn1)Nc1cc(C(=O)c2cn(CCO)c3ccncc23)ccn1 [Example 158, N-(4-{[1-(2-hydroxyethyl)-1H-pyrrolo[3,2-c]pyridin-3-yl]carbonyl}pyridin-2-yl)-2-(2H-1,2,3-triazol-2-yl)acetamide]	9800
CC(C)c1cn(CC(=O)Nc2cc(C(=O)c3cn(CCO)c4ccncc34)ccn2)nn1 [Example 159, N-(4-{[1-(2-hydroxyethyl)-1H-pyrrolo[3,2-c]pyridin-3-yl]carbonyl}pyridin-2-yl)-2-[4-(propan-2-yl)-1H-1,2,3-triazol-1-yl]acetamide]	271
Cc1noc(C)c1CC(=O)Nc1cc(C(=O)c2cn(C(C)C)c3ccncc23)ccn1 [Example 160, 2-(3,5-dimethyl-1,2-oxazol-4-yl)-N-(4-{[1-(propan-2-yl)-1H-pyrrolo[3,2-c]pyridin-3-yl]carbonyl}pyridin-2-yl)acetamide]	8990
Cc1nc(CC(=O)Nc2cc(C(=O)c3cn(C(C)C)c4ccncc34)ccn2)cs1 [Example 161, 2-(2-methyl-1,3-thiazol-4-yl)-N-(4-{[1-(propan-2-yl)-1H-pyrrolo[3,2-c]pyridin-3-yl]carbonyl}pyridin-2-yl)acetamide]	103
Cc1nc(CC(=O)Nc2cc(C(=O)c3cn(C(C)C)c4ccncc34)ccn2)c(C)s1 [Example 162, 2-(2,5-dimethyl-1,3-thiazol-4-yl)-N-(4-{[1-(propan-2-yl)-1H-pyrrolo[3,2-c]pyridin-3-yl]carbonyl}pyridin-2-yl)acetamide]	56
CC(C)n1cc(C(=O)c2ccnc(NC(=O)Cn3cc(C(F)(F)F)nn3)c2)c2cnccc21 [Example 163, N-(4-{[1-(propan-2-yl)-1H-pyrrolo[3,2-c]pyridin-3-yl]carbonyl}pyridin-2-yl)-2-[4-(trifluoromethyl)-1H-1,2,3-triazol-1-yl]acetamide]	10.7
Cc1cc(C)n(CC(=O)Nc2cc(C(=O)c3cn(C(C)C)c4ccncc34)ccn2)n1 [Example 164, 2-(3,5-dimethyl-1H-pyrazol-1-yl)-N-(4-{[1-(propan-2-yl)-1H-pyrrolo[3,2-c]pyridin-3-yl]carbonyl}pyridin-2-yl)acetamide]	33
CC(C)n1cc(C(=O)c2ccnc(NC(=O)Cc3ccc(Cl)c(Cl)c3)c2)c2cnccc21 [Example 165, 2-(3,4-dichlorophenyl)-N-(4-{[1-(propan-2-yl)-1H-pyrrolo[3,2-c]pyridin-3-yl]carbonyl}pyridin-2-yl)acetamide]	5.68
CC(C)n1cc(C(=O)c2ccnc(NC(=O)Cn3cccn3)c2)c2cnccc21 [Example 166, N-(4-{[1-(propan-2-yl)-1H-pyrrolo[3,2-c]pyridin-3-yl]carbonyl}pyridin-2-yl)-2-(1H-pyrazol-1-yl)acetamide]	955
Cc1nc(C)c(CC(=O)Nc2cc(C(=O)c3cn(C(C)C)c4ccncc34)ccn2)s1 [Example 167, 2-(2,4-dimethyl-1,3-thiazol-5-yl)-N-(4-{[1-(propan-2-yl)-1H-pyrrolo[3,2-c]pyridin-3-yl]carbonyl}pyridin-2-yl)acetamide]	181

SMILES	IC50 [nM]
Cc1ccnn1CC(=O)Nc1cc(C(=O)c2cn(C(C)C)c3ccncc23)ccn1 [Example 169, 2-(5-methyl-1H-pyrazol-1-yl)-N-(4-{[1-(propan-2-yl)-1H-pyrrolo[3,2-c]pyridin-3-yl]carbonyl}pyridin-2-yl)acetamide]	83.6
CC(C)n1cc(C(=O)c2ccnc(NC(=O)Cn3cnnn3)c2)c2cnccc21 [Example 170, N-(4-{[1-(propan-2-yl)-1H-pyrrolo[3,2-c]pyridin-3-yl]carbonyl}pyridin-2-yl)-2(1H-tetrazol-1-yl)acetamide]	6510
CC(C)n1cc(C(=O)c2ccnc(NC(=O)Cc3nc(C(C)(C)C)nn3C)c2)c2cnccc21 [Example 171, 2(3-tert-butyl-1-methyl-1H-1,2,4-triazol-5-yl)-N-(4-{[1-(propan-2-yl)-1H-pyrrolo[3,2-c]pyridin-3-yl]carbonyl}pyridin-2-yl)acetamide]	36.1
CC(C)n1cc(C(=O)c2ccnc(NC(=O)Cc3ccc(C(F)(F)F)c(F)c3)c2)c2cnccc21 [Example 172, 2-(3-fluoro-4-(trifluoromethyl)phenyl]-N-(4-{[1-(propan-2-yl)-1H-pyrrolo[3,2-c]pyridin-3-yl]carbonyl}-pyridin-2-yl)acetamide]	8.49
CC(C)n1cc(C(=O)c2ccnc(NC(=O)c3cccc(OC(F)(F)F)c3)c2)c2cnccc21 [Example 173, N-(4-{[1-(propan-2-yl)-1H-pyrrolo[3,2-c]pyridin-3-yl]carbonyl}pyridin-2-yl)-3-(trifluoromethoxy)-benzamide]	3.85
Cc1nc(CC(=O)Nc2cc(C(=O)c3cn(C(C)C)c4ccncc34)ccn2)c(C2CC2)o1 [Example 174, 2(5-cyclopropyl-2-methyl-1,3-oxazol-4-yl)-N-(4-{[1-(propan-2-yl)-1H-pyrrolo[3,2-c]pyridin-3-yl]carbonyl}pyridin-2-yl)acetamide]	51.4
CC(C)n1cc(C(=O)c2ccnc(NC(=O)Cc3ccc(C(F)(F)F)cc3)c2)c2cnccc21 [Example 175, N-(4-{[1-(propan-2-yl)-1H-pyrrolo[3,2-c]pyridin-3-yl]carbonyl}pyridin-2-yl)-2-[4-(trifluoromethyl)phenyl]acetamide]	5.3
COCc1cn(CC(=O)Nc2cc(C(=O)c3cn(C(C)C)c4ccncc34)ccn2)nn1 [Example 176]	904
Cc1cc(CC(=O)Nc2cc(C(=O)c3cn(C(C)C)c4ccncc34)ccn2)[nH]n1 [Example 177, 2(3-methyl-1H-pyrazol-5-yl)-N-(4-{[1-(propan-2-yl)-1H-pyrrolo[3,2-c]pyridin-3-yl]carbonyl}pyridin-2-yl)acetamide]	102
CC(C)n1ncc(CC(=O)Nc2cc(C(=O)c3cn(C(C)C)c4ccncc34)ccn2)c1C(F)(F)F [Example 178, N-(4-{[1-(propan-2-yl)-1H-pyrrolo[3,2-c]pyridin-3-yl]carbonyl}pyridin-2-yl)-2-[1-(propan-2-yl)-5-(trifluoromethyl)-1H-pyrazol-4-yl]acetamide]	22
Cc1nc(CC(=O)Nc2cc(C(=O)c3cn(C(C)C)c4ccncc34)ccn2)c(C)o1 [Example 179, 2-(2,5-dimethyl-1,3-oxazol-4-yl)-N-(4-{[1-(propan-2-yl)-1H-pyrrolo[3,2-c]pyridin-3-yl]carbonyl}pyridin-2-yl)acetamide]	163
CC(C)n1cc(C(=O)c2ccnc(NC(=O)Cc3ccon3)c2)c2cnccc21 [Example 180, 2-(1,2-oxazol-3-yl)-N-(4-{[1-(propan-2-yl)-1H-pyrrolo[3,2-c]pyridin-3-yl]carbonyl}pyridin-2-yl)acetamide]	1080
CC(C)n1cc(C(=O)c2ccnc(NC(=O)Cc3cscn3)c2)c2cnccc21 [Example 181, N-(4-{[1-(propan-2-yl)-1H-pyrrolo[3,2-c]pyridin-3-yl]carbonyl}pyridin-2-yl)-2(1,3-thiazol-4-yl)acetamide]	536
CC(C)n1cc(C(=O)c2ccnc(NC(=O)Cc3ccccc3OC(F)(F)F)c2)c2cnccc21 [Example 182, N-(4-{[1-(propan-2-yl)-1H-pyrrolo[3,2-c]pyridin-3-yl]carbonyl}pyridin-2-yl)-2-[2-(trifluoromethoxy)phenyl]acetamide]	26.1
CC(C)n1cc(C(=O)c2ccnc(NC(=O)Cc3ccc(C#N)cc3)c2)c2cnccc21 [Example 183, 2-(4-cyanophenyl)-N-(4-{[1-(propan-2-yl)-1H-pyrrolo[3,2-c]pyridin-3-yl]carbonyl}pyridin-2-yl)acetamide]	17.7
Cc1n[nH]c(CC(=O)Nc2cc(C(=O)c3cn(C(C)C)c4ccncc34)ccn2)n1 [Example 184, 2-(3-methyl-1H-1,2,4-triazol-5-yl)-N-(4-{[1-(propan-2-yl)-1H-pyrrolo[3,2-c]pyridin-3-yl]carbonyl}pyridin-2-yl)acetamide]	3180
